Source: patent US9310660B2, “Organic compound and electrochromic element including the same” (CANON KABUSHIKI KAISHA, priority 2013, dated 2016)

Columns and labels:
[1] = Solubility in propylene carbonate; format: physicochemical; conditions: organic solvent or mixture
Procedure: The solubilities of three compounds: Compound A-1 prepared in Example 1, Compound B-1 prepared in Example 2, and pyridinium salt precursor Ref-1 of Compound A-1 as a comparative example, in propylene carbonate, a solvent for an EC element, were measured.
Compound Ref-1 as a comparative example has a structure in which the pyridinium salt moiety of Compound A-1 is replaced by a non-ionized structure, a pyridyl group. The molecular structure is shown below.

[2] = Ultraviolet and visible absorption spectrum in chloroform; format: physicochemical; conditions: dissolved in chloroform, neutralized state
Procedure: The resulting exemplified compound A-1 was dissolved in chloroform. The absorption spectrum of the solution was measured with an ultraviolet and visible spectrometer (V-560, manufactured by JASCO Corp.) and is shown in FIG. 2.
The resulting exemplified compound B-1 was dissolved in chloroform. The absorption spectrum of the solution was measured as in Example 1.

solubility [1] [mM]	maximum absorption peak λmax [2] [nm]	Compound
≥ 75	311.5	Cc1c(-c2cccc(-c3cc[n+](Cc4ccccc4)cc3)c2)sc(-c2cccc(-c3cc[n+](Cc4ccccc4)cc3)c2)c1C [Compound B-1]
≥ 300	355.5	Cc1cc(C)c(-c2cc3sc4cc(-c5cccc(-c6cc[n+](Cc7ccccc7)cc6)c5)sc4c3s2)c(C)c1 [Compound A-1]

Compound	solubility [1] [mM]	maximum absorption peak λmax [2] [nm]
Cc1cc(C)c(-c2cc3sc4cc(-c5cccc(-c6ccncc6)c5)sc4c3s2)c(C)c1 [Ref-1, reference compound]	≤ 8	
